{"source": "patent US20240366813A1", "about": "“PEPTIDE-UREA DERIVATIVE, PHARMACEUTICAL COMPOSITION CONTAINING SAME AND APPLICATION THEREOF” (Bivision Pharmaceuticals, Inc., priority 0001, published 2024)", "assay": "In vivo distribution in healthy SD rats", "details": "intravenous, FIG. 7", "experimental": "In vivo distribution in healthy rats: Radiolabeled E series compounds were injected into the tail vein of SD rats aged 6-9 weeks (Hangzhou Ziyuan Testal Animal Technology Co., Ltd.) (about 7.4 MBq/mouse, specific activity: 84200.14 kBq/μg). At different time points (0.25, 0.5, 1, 2, 4, 6, 24, 48, 72 h) after administration of labeled compounds to SD rats, the animals were euthanized by carbon dioxide inhalation, and the blood and […] viscera (blood, liver, spleen, lungs, heart, muscle, pancreas, testes) of the animals were collected after euthanasia.\nBlood was collected through the abdominal aorta, and immediately after collection, 100 μL was quantified into a designated centrifuge tube (weighed). After the viscera were collected, they were washed twice with deionized water, wiped dry, put into a pre-weighed test tube, and weighed again. The weight of samples was calculated. The sample was measured on the day of collection. All blood samples and tissue samples were measured for radioactive counts using a gamma counter.", "data": [{"smiles": "O=C([O-])CN1CCN(CC(=O)[O-])CCN(CC(=O)N2CCc3cc(C(=O)NC(Cc4ccc5ccccc5c4)C(=O)NCCCCC(NC(=O)NC(CCC(=O)O)C(=O)O)C(=O)O)ccc3C2)CCN(CC(=O)[O-])CC1.[177Lu+3]", "note": "(stereo not shown) [^177Lu-E3]", "values": [{"measurement": "uptake in each organ", "value": "low"}]}]}
